The results in this text go back to paper PMC5893282 (ACS infectious diseases, 2018).

For experiment [1], the system named is E. coli ΔtolC PrecA-GFP SOS reporter. Put plainly: Cell-based SOS reporter assay. Conditions: ciprofloxacin 128 ng/mL, 2 hours, ΔtolC reporter strain.
In a further experiment the target is FlAsH-LexAPa with RecA* (Pseudomonas aeruginosa, UniProt P37452). The experiment is described as follows: Pilot screen of Microsource Spectrum library with FlAsH-LexAPa. The class given is biochemical, P. aeruginosa. Conditions: fixed concentration of 16 μM, single endpoint.
FlAsH-LexAPa with RecA*, sequence (P37452 81-204): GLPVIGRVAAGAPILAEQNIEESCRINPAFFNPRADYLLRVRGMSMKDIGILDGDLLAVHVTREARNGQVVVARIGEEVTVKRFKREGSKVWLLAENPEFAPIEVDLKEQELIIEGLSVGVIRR

Consider `O=C(O)c1cn(C2CC2)c2cc(N3CCNCC3)c(F)cc2c1=O` [ciprofloxacin], for which the “Increase in GFP fluorescence over the unstressed control” value in experiment [1] was ~ 50 fold.

On to `Cc1ccc(C(=O)Nc2ccc(S(=O)(=O)O)c3cc(S(=O)(=O)O)cc(S(=O)(=O)O)c23)cc1NC(=O)c1cccc(NC(=O)Nc2cccc(C(=O)Nc3cc(C(=O)Nc4ccc(S(=O)(=O)O)c5cc(S(=O)(=O)O)cc(S(=O)(=O)O)c45)ccc3C)c2)c1` [suramin], for which the “Hit in pilot screen” value on FlAsH-LexAPa with RecA* was “identified in this pilot screen”.
